Patent publication US5151414A, “Phenoxyethyl amine compounds active on the cardiovascular system” (SIMES Societa Italiana Medicinali e Sintetici S.p.A., priority 1987, dated 1992)

Tests used:
[1] = effects on systemic arterial pressure, heart rate and vascular resistances in anesthetized dog, intravenous route; type: in vivo
Procedure: In fact, the compounds object of the present invention reduce meaningfully systemic arterial pressure after administration by intravenous route in anesthetized dog (see example 11). The compound N-[2-(2,6-dichlorophenoxy)-ethyl]-N-propyl-2-amino-5,6-dihydroxy-1,2,3,4-tetrahydronaphthalene hydrochloride (Compound A) was tested by intravenous route in anesthetized dog in order to evaluate the effects on systemic arterial pressure. Compound A, administered by intravenous route at the doses of 10 and 20 μg/kg, reduced systemic arterial pressure as well as peripheral resistances and particularly femoral resistances, the last reduction being associated also with an increase of the corresponding haematic flow.

[2] = biological target: α1 receptor (rat cerebral cortex); experiment: α1 receptor binding on rat cerebral cortex
Text: (§1) The α1 -antagonistic activity has been evaluated as receptor binding on rat cerebral cortex and as antagonism to contraction induced by phenylephrine (α1 -agonist) on rabbit aorta.

α1 (rabbit aorta) = experiment: antagonism to contraction induced by phenylephrine (α1-agonist) on rabbit aorta; type: biochemical
Text: as §1

[3] = biological target: dopaminergic receptor (isolated membranes of rat striated muscle); experiment: receptor binding test, dopaminergic "in vitro" receptor affinity on isolated membranes of rat striated muscle
Text: (§2) Furthermore, the compounds of formula I show a remarkable dopaminergic activity in addition to an α1 -antagonistic effect. The dopaminergic activity has been evaluated by receptor binding tests as "in vitro" receptor affinity on isolated membranes of rat striated muscle and by pharmacological tests as "in vitro" inhibition of the answer to electric stimulation of cat right atrium.

[4] = tested on: dopaminergic activity, cat right atrium; experiment: "in vitro" inhibition of the answer to electric stimulation of cat right atrium (dopaminergic activity); type: biochemical
Text: as §2

`CCCN(CCOc1c(Cl)cccc1Cl)C1CCc2c(ccc(O)c2O)C1.Cl` (stereo not drawn) [Compound A, N-[2-(2,6-dichlorophenoxy)-ethyl]-N-propyl-2-amino-5,6-dihydroxy-1,2,3,4-tetrahydronaphthalene hydrochloride] showed a Renal resistances ([1]; 10 μg/kg iv, basal 1.007 + 0.186) of 0.871 ± 0.162 mmHg/ml/min, a Femoral resistances ([1]; 10 μg/kg iv, basal 2.471 + 0.260) of 1.802 ± 0.471 mmHg/ml/min and an a. femoral flow ([1]; 10 μg/kg iv, basal 54.1 + 3.8) of 67.4 ± 12.4 mL/min. The “Arterial pressure Mn” value ([1]; 10 μg/kg iv, basal 118 + 5) was 102 ± 8 mmHg, the “Arterial pressure Md” value ([1]; 10 μg/kg iv, basal 136 + 4) was 119 ± 7 mmHg and the a. renal flow ([1]; 10 μg/kg iv, basal 143.7 + 23.7) was 144.7 ± 20.6 mL/min. The Heart rate ([1]; 10 μg/kg iv, basal 152 + 11) was 161 ± 12 beats/min, the “Arterial pressure Mx” value ([1]; 10 μg/kg iv, basal 160 + 10) was 145 ± 8 mmHg and the Renal resistances ([1]; 20 μg/kg iv, basal 1.246 + 0.389) was 1.082 ± 0.367 mmHg/ml/min. For the same compound, the Femoral resistances ([1]; 20 μg/kg iv, basal 2.445 + 0.787) was 1.274 ± 0.171 mmHg/ml/min, the a. femoral flow ([1]; 20 μg/kg iv, basal 65.6 + 20.0) was 87.8 ± 20.0 mL/min and the “Arterial pressure Mn” value ([1]; 20 μg/kg iv, basal 118 + 9) was 96 ± 11 mmHg. The a. renal flow ([1]; 20 μg/kg iv, basal 129.9 + 31.8) was 128.9 ± 31.3 mL/min, the “Arterial pressure Md” value ([1]; 20 μg/kg iv, basal 132 + 8) was 109 ± 9 mmHg and the Heart rate ([1]; 20 μg/kg iv, basal 136 + 13) was 146 ± 17 beats/min. For the same compound, the “Arterial pressure Mx” value ([1]; 20 μg/kg iv, basal 148 + 8) was 124 ± 9 mmHg, the “femoral resistances (in words)” value ([1]; intravenous, 10 and 20 μg/kg) was “reduced” and the “haematic flow, femoral (in words)” value ([1]; intravenous, 10 and 20 μg/kg) was “increase”. The “peripheral resistances (in words)” value ([1]; intravenous, 10 and 20 μg/kg) was “reduced”, the “systemic arterial pressure (in words)” value ([1]; intravenous, 10 and 20 μg/kg) was “reduced” and the IC50 [2] was 76 nM. The “pA2 (rabbit aorta)” value (α1 (rabbit aorta)) was 7.42, the IC50 [3] was 251 nM and the IC50 [4] was 8.5 µM.
